Experimental data: article PMC10905675, “INX-315, a Selective CDK2 Inhibitor, Induces Cell Cycle Arrest and Senescence in Solid Tumors” (Cancer Discovery, 2023)

Tests used:
Experiment in all cases: SelectScreen ZLYTE
Format in all cases: biochemical
Conditions in all cases: INX-0315 at 100nM
GSK3A (GSK3 alpha) = target: T1, GSK3A (GSK3 alpha) (Homo sapiens, UniProt P49840)
T1 construct: purchased Thermo Fisher Scientific SelectScreen (plus Nanosyn / Reaction Biology for CDK/cyclin lines)
In short: (§1)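 Activity and binding formats were run as established by the profiling service; INX-315 entered at one concentration (100 nmol/L, 1% DMSO) before titration over a 1 µmol/L–0.0495 nmol/L range in ten steps.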

AXL = target: T2, AXL (Homo sapiens, UniProt P30530)
T2 construct: purchased Thermo Fisher Scientific SelectScreen (plus Nanosyn / Reaction Biology for CDK/cyclin lines)
In short: as §1

GRK5 = target: T3, GRK5 (Homo sapiens, UniProt P34947)
T3 construct: purchased Thermo Fisher Scientific SelectScreen (plus Nanosyn / Reaction Biology for CDK/cyclin lines)
T3 sequence (P34947 whole entry): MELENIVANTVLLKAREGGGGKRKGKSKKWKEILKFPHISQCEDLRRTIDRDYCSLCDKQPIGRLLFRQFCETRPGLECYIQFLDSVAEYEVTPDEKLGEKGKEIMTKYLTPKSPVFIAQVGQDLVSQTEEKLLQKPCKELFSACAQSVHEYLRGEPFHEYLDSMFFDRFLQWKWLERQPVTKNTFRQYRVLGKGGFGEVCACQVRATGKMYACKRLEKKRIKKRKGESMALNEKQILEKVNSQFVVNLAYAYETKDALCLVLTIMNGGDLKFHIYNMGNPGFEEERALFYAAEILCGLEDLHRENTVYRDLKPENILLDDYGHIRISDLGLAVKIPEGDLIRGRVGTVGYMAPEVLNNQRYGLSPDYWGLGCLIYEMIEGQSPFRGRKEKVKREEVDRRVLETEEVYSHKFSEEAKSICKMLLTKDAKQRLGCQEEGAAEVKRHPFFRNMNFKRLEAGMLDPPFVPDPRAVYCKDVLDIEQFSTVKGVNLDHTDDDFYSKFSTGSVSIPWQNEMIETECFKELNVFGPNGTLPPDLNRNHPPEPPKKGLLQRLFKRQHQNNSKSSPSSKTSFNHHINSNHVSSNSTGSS
In short: as §1

SGK (SGK1) = target: T4, SGK (SGK1) (Homo sapiens, UniProt O00141)
T4 construct: purchased Thermo Fisher Scientific SelectScreen (plus Nanosyn / Reaction Biology for CDK/cyclin lines)
In short: as §1

PIM3 = target: T5, PIM3 (Homo sapiens, UniProt Q86V86)
T5 construct: purchased Thermo Fisher Scientific SelectScreen (plus Nanosyn / Reaction Biology for CDK/cyclin lines)
In short: as §1

PTK2B (FAK2) = target: T6, PTK2B (FAK2) (Homo sapiens, UniProt Q14289)
T6 construct: purchased Thermo Fisher Scientific SelectScreen (plus Nanosyn / Reaction Biology for CDK/cyclin lines)
In short: as §1

PRKCE (PKC epsilon) = target: T7, PRKCE (PKC epsilon) (Homo sapiens, UniProt Q02156)
T7 construct: purchased Thermo Fisher Scientific SelectScreen (plus Nanosyn / Reaction Biology for CDK/cyclin lines)
In short: as §1

CAMK2D (CaMKII delta) = target: T8, CAMK2D (CaMKII delta) (Homo sapiens, UniProt Q13557)
T8 construct: purchased Thermo Fisher Scientific SelectScreen (plus Nanosyn / Reaction Biology for CDK/cyclin lines)
In short: as §1

AURKB (Aurora B) = target: T9, AURKB (Aurora B) (Homo sapiens, UniProt Q96GD4)
T9 construct: purchased Thermo Fisher Scientific SelectScreen (plus Nanosyn / Reaction Biology for CDK/cyclin lines)
In short: as §1

CHEK1 (CHK1) = target: T10, CHEK1 (CHK1) (Homo sapiens, UniProt O14757)
T10 construct: purchased Thermo Fisher Scientific SelectScreen (plus Nanosyn / Reaction Biology for CDK/cyclin lines)
T10 sequence (O14757 whole entry): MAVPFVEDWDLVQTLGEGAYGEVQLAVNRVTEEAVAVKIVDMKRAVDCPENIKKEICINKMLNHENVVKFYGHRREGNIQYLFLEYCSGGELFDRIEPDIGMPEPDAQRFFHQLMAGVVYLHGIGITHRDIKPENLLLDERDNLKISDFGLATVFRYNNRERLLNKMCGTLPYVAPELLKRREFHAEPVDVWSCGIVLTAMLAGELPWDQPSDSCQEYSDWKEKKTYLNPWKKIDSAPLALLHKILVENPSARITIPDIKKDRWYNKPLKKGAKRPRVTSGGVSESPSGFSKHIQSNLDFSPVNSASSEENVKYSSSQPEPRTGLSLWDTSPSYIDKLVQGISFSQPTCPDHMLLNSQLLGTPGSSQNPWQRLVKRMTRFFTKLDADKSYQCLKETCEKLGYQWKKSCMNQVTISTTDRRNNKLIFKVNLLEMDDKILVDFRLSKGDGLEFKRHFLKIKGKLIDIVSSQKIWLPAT
In short: as §1

TEK (TIE2) Y897S = target: T11, TEK (TIE2) Y897S (Homo sapiens, UniProt Q02763, Y897S)
T11 construct: purchased Thermo Fisher Scientific SelectScreen (plus Nanosyn / Reaction Biology for CDK/cyclin lines)
In short: as §1

MAPK9 (JNK2) = target: T12, MAPK9 (JNK2) (Homo sapiens, UniProt P45984)
T12 construct: purchased Thermo Fisher Scientific SelectScreen (plus Nanosyn / Reaction Biology for CDK/cyclin lines)
T12 sequence (P45984 whole entry): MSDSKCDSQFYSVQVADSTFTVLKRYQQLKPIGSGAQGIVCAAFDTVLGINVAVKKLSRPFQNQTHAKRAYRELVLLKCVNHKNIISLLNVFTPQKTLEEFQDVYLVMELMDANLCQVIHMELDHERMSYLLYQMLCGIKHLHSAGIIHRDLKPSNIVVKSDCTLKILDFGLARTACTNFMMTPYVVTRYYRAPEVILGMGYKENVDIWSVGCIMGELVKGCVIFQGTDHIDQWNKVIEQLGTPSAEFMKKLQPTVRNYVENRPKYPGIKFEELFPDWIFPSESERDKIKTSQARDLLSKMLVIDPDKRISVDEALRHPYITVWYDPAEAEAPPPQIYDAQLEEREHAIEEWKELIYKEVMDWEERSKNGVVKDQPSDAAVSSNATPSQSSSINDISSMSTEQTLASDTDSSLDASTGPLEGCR
In short: as §1

ZAP70 = target: T13, ZAP70 (Homo sapiens, UniProt P43403)
T13 construct: purchased Thermo Fisher Scientific SelectScreen (plus Nanosyn / Reaction Biology for CDK/cyclin lines)
In short: as §1

EGFR (ErbB1) G719S = target: T14, EGFR (ErbB1) G719S (Homo sapiens, UniProt P00533, G719S)
T14 construct: purchased Thermo Fisher Scientific SelectScreen (plus Nanosyn / Reaction Biology for CDK/cyclin lines)
In short: as §1

ROCK1 = target: T15, ROCK1 (Homo sapiens, UniProt Q13464)
T15 construct: purchased Thermo Fisher Scientific SelectScreen (plus Nanosyn / Reaction Biology for CDK/cyclin lines)
T15 sequence (Q13464 whole entry): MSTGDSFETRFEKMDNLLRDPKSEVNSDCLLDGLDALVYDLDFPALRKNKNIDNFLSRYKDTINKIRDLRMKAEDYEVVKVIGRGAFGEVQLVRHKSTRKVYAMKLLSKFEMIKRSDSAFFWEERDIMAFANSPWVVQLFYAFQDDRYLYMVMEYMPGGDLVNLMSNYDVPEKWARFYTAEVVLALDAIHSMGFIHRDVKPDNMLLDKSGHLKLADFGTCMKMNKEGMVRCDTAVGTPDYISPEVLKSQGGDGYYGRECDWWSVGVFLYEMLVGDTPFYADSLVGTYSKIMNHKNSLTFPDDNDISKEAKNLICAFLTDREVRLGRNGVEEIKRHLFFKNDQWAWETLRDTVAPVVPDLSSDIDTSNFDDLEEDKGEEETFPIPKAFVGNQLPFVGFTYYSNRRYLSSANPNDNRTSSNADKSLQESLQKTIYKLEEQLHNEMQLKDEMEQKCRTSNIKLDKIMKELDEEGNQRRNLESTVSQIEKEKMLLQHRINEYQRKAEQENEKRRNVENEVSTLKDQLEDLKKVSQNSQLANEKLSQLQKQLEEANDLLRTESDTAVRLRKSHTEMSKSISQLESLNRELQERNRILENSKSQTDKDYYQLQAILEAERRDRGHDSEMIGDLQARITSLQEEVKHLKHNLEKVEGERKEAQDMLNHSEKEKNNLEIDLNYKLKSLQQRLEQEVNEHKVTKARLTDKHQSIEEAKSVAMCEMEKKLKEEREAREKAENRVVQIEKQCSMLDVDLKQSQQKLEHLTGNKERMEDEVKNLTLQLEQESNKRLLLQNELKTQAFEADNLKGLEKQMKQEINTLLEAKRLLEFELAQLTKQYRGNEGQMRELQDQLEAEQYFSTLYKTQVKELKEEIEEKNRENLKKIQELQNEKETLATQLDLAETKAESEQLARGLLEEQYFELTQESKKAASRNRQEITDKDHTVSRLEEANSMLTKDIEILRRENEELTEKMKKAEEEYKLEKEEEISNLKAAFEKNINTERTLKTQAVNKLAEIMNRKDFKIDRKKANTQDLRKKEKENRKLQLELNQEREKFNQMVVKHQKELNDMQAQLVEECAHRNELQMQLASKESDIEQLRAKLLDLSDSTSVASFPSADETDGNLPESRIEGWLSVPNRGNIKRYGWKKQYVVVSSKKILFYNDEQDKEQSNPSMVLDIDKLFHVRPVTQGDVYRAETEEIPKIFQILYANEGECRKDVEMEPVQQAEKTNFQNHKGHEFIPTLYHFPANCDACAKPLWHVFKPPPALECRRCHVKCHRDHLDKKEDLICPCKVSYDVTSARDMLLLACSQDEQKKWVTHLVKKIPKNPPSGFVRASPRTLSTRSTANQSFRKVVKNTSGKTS
In short: as §1

ERBB4 (HER4) = target: T16, ERBB4 (HER4) (Homo sapiens, UniProt Q15303)
T16 construct: purchased Thermo Fisher Scientific SelectScreen (plus Nanosyn / Reaction Biology for CDK/cyclin lines)
In short: as §1

HIPK4 = target: T17, HIPK4 (Homo sapiens, UniProt Q8NE63)
T17 construct: purchased Thermo Fisher Scientific SelectScreen (plus Nanosyn / Reaction Biology for CDK/cyclin lines)
In short: as §1

AURKA (Aurora A) = target: T18, AURKA (Aurora A) (Homo sapiens, UniProt O14965)
T18 construct: purchased Thermo Fisher Scientific SelectScreen (plus Nanosyn / Reaction Biology for CDK/cyclin lines)
In short: as §1

MAPK1 (ERK2) = target: T19, MAPK1 (ERK2) (Homo sapiens, UniProt P28482)
T19 construct: purchased Thermo Fisher Scientific SelectScreen (plus Nanosyn / Reaction Biology for CDK/cyclin lines)
In short: as §1

PTK2 (FAK) = target: T20, PTK2 (FAK) (Homo sapiens, UniProt Q05397)
T20 construct: purchased Thermo Fisher Scientific SelectScreen (plus Nanosyn / Reaction Biology for CDK/cyclin lines)
In short: as §1

MST1R (RON) = target: T21, MST1R (RON) (Homo sapiens, UniProt Q04912)
T21 construct: purchased Thermo Fisher Scientific SelectScreen (plus Nanosyn / Reaction Biology for CDK/cyclin lines)
In short: as §1

MAP2K6 (MKK6) = target: T22, MAP2K6 (MKK6) (Homo sapiens, UniProt P52564)
T22 construct: purchased Thermo Fisher Scientific SelectScreen (plus Nanosyn / Reaction Biology for CDK/cyclin lines)
In short: as §1

PRKCG (PKC gamma) = target: T23, PRKCG (PKC gamma) (Homo sapiens, UniProt P05129)
T23 construct: purchased Thermo Fisher Scientific SelectScreen (plus Nanosyn / Reaction Biology for CDK/cyclin lines)
In short: as §1

FLT3 = target: T24, FLT3 (Homo sapiens, UniProt P36888)
T24 construct: purchased Thermo Fisher Scientific SelectScreen (plus Nanosyn / Reaction Biology for CDK/cyclin lines)
In short: as §1

SGKL (SGK3) = target: T25, SGKL (SGK3) (Homo sapiens, UniProt Q96BR1)
T25 construct: purchased Thermo Fisher Scientific SelectScreen (plus Nanosyn / Reaction Biology for CDK/cyclin lines)
In short: as §1

KIT T670I = target: T26, KIT T670I (Homo sapiens, UniProt P10721, T670I)
T26 construct: purchased Thermo Fisher Scientific SelectScreen (plus Nanosyn / Reaction Biology for CDK/cyclin lines)
T26 sequence (P10721 26-976 T670I): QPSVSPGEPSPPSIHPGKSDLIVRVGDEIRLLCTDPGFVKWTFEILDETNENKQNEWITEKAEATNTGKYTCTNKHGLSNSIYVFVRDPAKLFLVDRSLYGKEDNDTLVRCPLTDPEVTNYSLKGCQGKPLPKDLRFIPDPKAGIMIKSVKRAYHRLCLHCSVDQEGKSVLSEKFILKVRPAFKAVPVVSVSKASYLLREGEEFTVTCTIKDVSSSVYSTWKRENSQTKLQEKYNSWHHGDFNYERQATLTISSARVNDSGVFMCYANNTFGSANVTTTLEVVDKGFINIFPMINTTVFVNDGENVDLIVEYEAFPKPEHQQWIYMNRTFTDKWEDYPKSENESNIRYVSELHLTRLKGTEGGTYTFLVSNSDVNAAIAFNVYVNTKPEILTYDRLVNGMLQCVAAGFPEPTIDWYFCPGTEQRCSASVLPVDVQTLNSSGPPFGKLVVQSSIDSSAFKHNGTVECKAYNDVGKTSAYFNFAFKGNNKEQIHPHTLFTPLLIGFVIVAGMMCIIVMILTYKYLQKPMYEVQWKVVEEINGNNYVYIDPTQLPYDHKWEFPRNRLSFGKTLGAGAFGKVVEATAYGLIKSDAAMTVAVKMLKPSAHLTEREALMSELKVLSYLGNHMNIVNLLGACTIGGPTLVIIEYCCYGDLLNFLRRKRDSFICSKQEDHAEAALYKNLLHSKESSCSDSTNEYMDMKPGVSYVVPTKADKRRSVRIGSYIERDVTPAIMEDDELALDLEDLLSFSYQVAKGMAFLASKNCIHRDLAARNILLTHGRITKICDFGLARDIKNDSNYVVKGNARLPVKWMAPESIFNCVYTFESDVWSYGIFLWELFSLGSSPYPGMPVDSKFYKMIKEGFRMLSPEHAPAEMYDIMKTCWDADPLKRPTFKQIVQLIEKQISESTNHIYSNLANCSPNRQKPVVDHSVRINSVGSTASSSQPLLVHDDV
In short: as §1

FGFR1 = target: T27, FGFR1 (Homo sapiens, UniProt P11362)
T27 construct: purchased Thermo Fisher Scientific SelectScreen (plus Nanosyn / Reaction Biology for CDK/cyclin lines)
In short: as §1

RPS6KA5 (MSK1) = target: T28, RPS6KA5 (MSK1) (Homo sapiens, UniProt O75582)
T28 construct: purchased Thermo Fisher Scientific SelectScreen (plus Nanosyn / Reaction Biology for CDK/cyclin lines)
In short: as §1

TAOK2 (TAO1) = target: T29, TAOK2 (TAO1) (Homo sapiens, UniProt Q9UL54)
T29 construct: purchased Thermo Fisher Scientific SelectScreen (plus Nanosyn / Reaction Biology for CDK/cyclin lines)
In short: as §1

BTK = target: T30, BTK (Homo sapiens, UniProt Q06187)
T30 construct: purchased Thermo Fisher Scientific SelectScreen (plus Nanosyn / Reaction Biology for CDK/cyclin lines)
In short: as §1

CSNK1A1L = target: T31, CSNK1A1L (Homo sapiens, UniProt Q8N752)
T31 construct: purchased Thermo Fisher Scientific SelectScreen (plus Nanosyn / Reaction Biology for CDK/cyclin lines)
In short: as §1

PLK2 = target: T32, PLK2 (Homo sapiens, UniProt Q9NYY3)
T32 construct: purchased Thermo Fisher Scientific SelectScreen (plus Nanosyn / Reaction Biology for CDK/cyclin lines)
T32 sequence (Q9NYY3 whole entry): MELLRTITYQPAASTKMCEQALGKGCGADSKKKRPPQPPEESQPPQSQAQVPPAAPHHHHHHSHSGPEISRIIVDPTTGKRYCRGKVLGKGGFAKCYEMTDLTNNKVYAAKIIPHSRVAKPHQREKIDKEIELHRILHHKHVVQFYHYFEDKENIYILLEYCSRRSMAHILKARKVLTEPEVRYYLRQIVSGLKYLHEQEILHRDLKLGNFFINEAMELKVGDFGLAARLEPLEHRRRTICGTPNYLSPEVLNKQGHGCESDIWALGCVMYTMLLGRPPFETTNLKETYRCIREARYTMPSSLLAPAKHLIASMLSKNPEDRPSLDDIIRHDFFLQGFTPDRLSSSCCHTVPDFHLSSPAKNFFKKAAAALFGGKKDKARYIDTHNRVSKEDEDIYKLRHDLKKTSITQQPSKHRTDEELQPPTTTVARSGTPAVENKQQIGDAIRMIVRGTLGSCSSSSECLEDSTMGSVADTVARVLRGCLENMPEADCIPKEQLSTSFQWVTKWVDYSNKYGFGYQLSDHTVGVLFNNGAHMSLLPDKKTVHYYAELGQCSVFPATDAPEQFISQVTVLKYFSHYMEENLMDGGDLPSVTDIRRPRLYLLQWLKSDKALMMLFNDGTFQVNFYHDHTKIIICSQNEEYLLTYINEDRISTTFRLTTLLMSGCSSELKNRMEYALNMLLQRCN
In short: as §1

ABL1 F317L = target: T33, ABL1 F317L (Homo sapiens, UniProt P00519, F317L)
T33 construct: purchased Thermo Fisher Scientific SelectScreen (plus Nanosyn / Reaction Biology for CDK/cyclin lines)
In short: as §1

ROCK2 = target: T34, ROCK2 (Homo sapiens, UniProt O75116)
T34 construct: purchased Thermo Fisher Scientific SelectScreen (plus Nanosyn / Reaction Biology for CDK/cyclin lines)
In short: as §1

PDK1 Direct = target: T35, PDK1 Direct (Homo sapiens, UniProt O15530)
T35 construct: purchased Thermo Fisher Scientific SelectScreen (plus Nanosyn / Reaction Biology for CDK/cyclin lines)
In short: as §1

DNA-PK = target: T36, DNA-PK (Homo sapiens, UniProt P78527)
T36 construct: purchased Thermo Fisher Scientific SelectScreen (plus Nanosyn / Reaction Biology for CDK/cyclin lines)
In short: as §1

EPHA8 = target: T37, EPHA8 (Homo sapiens, UniProt P29322)
T37 construct: purchased Thermo Fisher Scientific SelectScreen (plus Nanosyn / Reaction Biology for CDK/cyclin lines)
In short: as §1

Q: What does the source list for `NS(=O)(=O)c1ccc(Nc2ncc3cc4n(c3n2)C2(CCCCC2)C(=O)NN4)cc1` [INX-315]?
A: inhibition at 0.1 µM (GSK3A (GSK3 alpha)): 11%; inhibition at 0.1 µM (AXL): 17%; inhibition at 0.1 µM (GRK5): 24%; inhibition at 0.1 µM (SGK (SGK1)): 6%; inhibition at 0.1 µM (PIM3): 8%; inhibition at 0.1 µM (PTK2B (FAK2)): 5%; inhibition at 0.1 µM (PRKCE (PKC epsilon)): 3%; inhibition at 0.1 µM (CAMK2D (CaMKII delta)): 1%; inhibition at 0.1 µM (AURKB (Aurora B)): 53%; inhibition at 0.1 µM (CHEK1 (CHK1)): 2%; inhibition at 0.1 µM (TEK (TIE2) Y897S): 6%; inhibition at 0.1 µM (MAPK9 (JNK2)): -1%; inhibition at 0.1 µM (ZAP70): -1%; inhibition at 0.1 µM (EGFR (ErbB1) G719S): 4%; inhibition at 0.1 µM (ROCK1): 5%; inhibition at 0.1 µM (ERBB4 (HER4)): 2%; inhibition at 0.1 µM (HIPK4): 7%; inhibition at 0.1 µM (AURKA (Aurora A)): 38%; inhibition at 0.1 µM (MAPK1 (ERK2)): 4%; inhibition at 0.1 µM (PTK2 (FAK)): 8%; inhibition at 0.1 µM (MST1R (RON)): 2%; inhibition at 0.1 µM (MAP2K6 (MKK6)): 3%; inhibition at 0.1 µM (PRKCG (PKC gamma)): 7%; inhibition at 0.1 µM (FLT3): 40%; inhibition at 0.1 µM (SGKL (SGK3)): 6%; inhibition at 0.1 µM (KIT T670I): 7%; inhibition at 0.1 µM (FGFR1): 4%; inhibition at 0.1 µM (RPS6KA5 (MSK1)): 8%; inhibition at 0.1 µM (TAOK2 (TAO1)): 10%; inhibition at 0.1 µM (BTK): 10%; inhibition at 0.1 µM (CSNK1A1L): 4%; inhibition at 0.1 µM (PLK2): 5%; inhibition at 0.1 µM (ABL1 F317L): 3%; inhibition at 0.1 µM (ROCK2): 6%; inhibition at 0.1 µM (PDK1 Direct): 8%; inhibition at 0.1 µM (DNA-PK): 6%; inhibition at 0.1 µM (EPHA8): 16%
